Data as given in patent US11608483B2, “Inverted culture plate system for cellular co-culture” (University of Maryland, Baltimore, priority 2016, dated 2023).
Like-named read-outs stand apart in the source and are kept apart here.

How the values were obtained:
[1] = test system: human primary hepatocytes (HPHs); experiment: LC-MS/MS measurement of PK11195 metabolism in HPHs; type: in vitro ADME; conditions: for LC-MS/MS peak of metabolite in HPH culture medium: after 1 hour incubation of 10 μM PK11195 with HPHs, versus 0 hour
Experimental: Media (450 μl ) were collected from each well at 0 and 1 hours and frozen immediately at −80° C. Samples were thawed on ice before adding 50 μl of medium to 450 μl of ice-cold methanol/H2O (8:1, v/v). After centrifugation at 16,000g for 30 minutes, 200 μl of supernatant was transferred to a separate tube and dried down before resuspension in 200 μl H2O/ACN (1:1, v/v) with 0.1% formic acid. Authentic standards were prepared to 1 μM in H2O/ACN (1:1, v/v) with 0.1% formic acid. LC-MS/MS analysis was performed on a TSQ Quantum Ultra Triple Stage Quadrupole Mass Spectrometer coupled to an Ultimate 3000 RS Liquid Chromatogram System (Thermo Scientific, Waltham, Mass.). The LC separation was performed on a Waters (Milford, Mass.) BEH C18 column (2.1×50 mm, 1.7 μm) operated at 30° C. Solvents A and B consisted of 0.1% formic acid in H2O and 0.1% formic acid in ACN, respectively. The gradient program was 0.0-0.5 minutes, 50% B; 0.5-2.0 minutes, gradient to 95% B; 2.0-3.5 minutes, 95% B; 3.5-4.0 minutes, gradient to 50% B; and 4.0-5.0 minutes, 50% B. The flow rate was 0.5 ml/min and injection volume was 5 μl. Tandem mass spectrometry was performed in the positive-ion mode and the electrospray ionization source parameters were as follows: spray voltage, 3000; capillary temperature, 325; sheath gas pressure, 40; auxiliary gas pressure, 15; capillary offset, 35; and tube lens offset, 80. […] Data collection and analysis were performed using Xcalibur V 2.1 (Thermo Scientific).

[2] = test system: CYP2B6 and CYP3A4 expression; experiment: CYP2B6 and CYP3A4 induction in PXR-KO HepaRG cells; conditions: differentiated PXR-KO HepaRG cells; 10 μM; 24 h mRNA, 72 h protein
Experimental: (§1) The age and sex of each liver donor used are detailed in Table 1.
(§2) Total RNA was isolated from cells using TRIzol reagent (ThermoFisher, Rockford, Ill.) and reverse transcribed using a High Capacity cDNA archive kit (Applied
(§3) Biosystems, Foster, Calif.) according to the manufacturer's instructions. Real-time PCR assay was performed using SYBR Green PCR Mastermix (Qiagen, Germantown, Md.) on an ABI StepOnePlus real-timePCR system (Applied Biosystems). […] Expression values were quantified using the following equation: fold over control=2^ΔΔCt method, where ΔCt represents the differences in cycle threshold numbers between the target gene and glyceraldehyde-3-phosphate dehydrogenase, and ΔΔCt represents the relative change in these differences between control and treatment groups.
(§4) Subsequently, membranes were incubated with primary antibodies against CYP2B6 (1:200; Santa Cruz Biotechnology, Santa Cruz, Calif.), CYP3A4 (1:5000; Sigma-Aldrich), or β-actin (1:50,000, Sigma-Aldrich) at 4° C. overnight. Blots were developed with West Pico chemiluminescent substrates (ThermoFisher) after incubation with horse-radish peroxidase secondary antibodies.

hCAR/GRIP1 interaction = target: T1, hCAR/GRIP1 interaction (Homo sapiens, UniProt Q14994); experiment: Mammalian two-hybrid assay in COS1 cells, CAR/GRIP1; type: cell-based; conditions: 24 h
T1 construct: expressed in transfected cells; host or cells: COS1
T1 sequence (Q14994 1-348 isoform Q14994-2): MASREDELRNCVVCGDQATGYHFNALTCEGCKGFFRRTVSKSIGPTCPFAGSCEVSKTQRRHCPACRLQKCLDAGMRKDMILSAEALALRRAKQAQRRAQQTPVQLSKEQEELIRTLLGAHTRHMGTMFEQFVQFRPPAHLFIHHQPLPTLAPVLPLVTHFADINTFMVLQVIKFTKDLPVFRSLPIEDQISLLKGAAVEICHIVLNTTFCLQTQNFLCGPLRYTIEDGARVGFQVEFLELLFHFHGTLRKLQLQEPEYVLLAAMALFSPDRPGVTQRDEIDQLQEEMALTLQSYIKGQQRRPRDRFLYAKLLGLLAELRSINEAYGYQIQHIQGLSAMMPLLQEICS
Experimental: (§5) COS1 cells seeded in 24-well plates were transfected with 110 ng of the reporter gene plasmid pG5luc, 80 ng of expression plasmids encoding the respective VP16AD/hCAR fusions, 40 ng of expression plasmids encoding GAL4-DBD/coregulatory fusions, and 20 ng of reference plasmid pRL-TK, each well using X-tremeGENE 9 DNA Transfection Reagent (Sigma-Aldrich). […] Luciferase activities were measured in cell lysates using the Dual Luciferase Kit (Promega). Data represent the mean±S.D. of three individual transfections.

hCAR1+A = target: T2, hCAR1+A (Homo sapiens, UniProt Q14994, INS274A); experiment: CAR1+A/CYP2B6-2.2k reporter assay in transfected HepG2 cells; type: cell-based; conditions: HepG2 cells without HPHs, 24 h
T2 construct: expressed in transfected cells; host or cells: HepG2
T2 sequence (Q14994 with tags, fused parts or gaps isoform Q14994-2 INS270A): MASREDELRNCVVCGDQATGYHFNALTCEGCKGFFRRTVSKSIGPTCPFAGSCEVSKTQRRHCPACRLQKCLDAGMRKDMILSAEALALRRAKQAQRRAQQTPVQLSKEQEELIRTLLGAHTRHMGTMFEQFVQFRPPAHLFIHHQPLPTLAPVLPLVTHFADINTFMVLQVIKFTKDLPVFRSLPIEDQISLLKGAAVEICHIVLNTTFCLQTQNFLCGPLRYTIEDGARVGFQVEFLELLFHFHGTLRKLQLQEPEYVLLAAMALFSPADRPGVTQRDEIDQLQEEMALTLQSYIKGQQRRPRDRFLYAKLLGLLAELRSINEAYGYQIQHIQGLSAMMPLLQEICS
T2 sequence (P19793 1-462 partner): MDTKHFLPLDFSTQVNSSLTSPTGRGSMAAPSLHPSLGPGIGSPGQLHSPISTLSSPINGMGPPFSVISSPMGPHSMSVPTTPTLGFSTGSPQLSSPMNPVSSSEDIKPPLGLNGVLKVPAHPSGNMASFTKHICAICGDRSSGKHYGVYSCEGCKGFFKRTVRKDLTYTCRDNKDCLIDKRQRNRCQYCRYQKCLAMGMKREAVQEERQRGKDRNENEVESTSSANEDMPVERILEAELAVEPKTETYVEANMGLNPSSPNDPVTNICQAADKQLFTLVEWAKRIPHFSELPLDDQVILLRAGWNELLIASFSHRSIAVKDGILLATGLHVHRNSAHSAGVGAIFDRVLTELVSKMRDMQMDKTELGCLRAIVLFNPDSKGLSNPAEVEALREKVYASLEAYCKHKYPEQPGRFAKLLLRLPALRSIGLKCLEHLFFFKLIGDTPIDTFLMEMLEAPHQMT

hCAR [3] = target: T3, hCAR (Homo sapiens, UniProt Q14994); experiment: CYP2B6 luciferase reporter assay in HepG2-CAR-2B6 stable cells without HPHs; type: cell-based; parameters: expressed in transfected cells; conditions: 24 h; for hCAR activity (CYP2B6 reporter luciferase activity): HepG2-CAR-2B6 cells without HPHs
T3 sequence (Q14994 1-348 isoform Q14994-2): T1 sequence (Q14994 1-348 isoform Q14994-2)

hCAR [4] = target: T3, hCAR; experiment: Nuclear translocation of EYFP-hCAR in HPHs; type: cell-based; parameters: expressed in transfected cells; conditions: HPHs donor 123; 1 mM PB, 10 μM others; 8 hours
Experimental: After treatment, cells were fixed with 4% paraformaldehyde, stained with 1 μg/ml 4′,6-diamidino-2-phenylindole (Sigma-Aldrich) for 30 minutes, and EYFP-hCAR localization in hepatocytes was visualized on a Nikon Eclipse TI fluorescent microscope (Nikon, Melville, N.Y.). Quantitative distribution of EYFP-hCAR was analyzed using General Analysis in the Nikon Elements AR High Content Analysis software package (version 4.50.00). Nuclear localization was defined and quantified as the percentage of total enhanced yellow fluorescent protein that overlaps with 4′,6-diamidino-2-phenylindole.

hCAR/SRC-1 interaction = target: T4, hCAR/SRC-1 interaction (Homo sapiens, UniProt Q14994); experiment: Mammalian two-hybrid assay in COS1 cells, CAR/SRC-1; type: cell-based; conditions: 24 h
T4 construct: expressed in transfected cells; host or cells: COS1
T4 sequence (Q14994 1-348 isoform Q14994-2): T1 sequence (Q14994 1-348 isoform Q14994-2)
Experimental: as §5

HEK-293 cells [5] = conditions: HEK-293 cultured alone, concentration up to 1 mM, 24 hrs
HEK-293 cells [6] = conditions: HPH/HEK-293 co-culture versus HEK-293 alone, 24 hrs
hCAR [7] = target: T3, hCAR; conditions: 8 μM KET, PK11195 1 and 10 μM, HPH co-culture, 24 h
[8] = Mordente A et al., 2009; cited from earlier work
[9] = test system: CYP2B6 and CYP3A4 expression; experiment: CYP2B6 and CYP3A4 mRNA (real-time RT-PCR) and protein (western blot) induction in human primary hepatocytes
Experimental: as §1, §2, §3, §4

[10] = test system: CYP2B6 and CYP3A4 expression; experiment: CYP2B6 and CYP3A4 induction in wild-type HepaRG cells; type: cell-based; conditions: differentiated wild-type HepaRG cells; 10 μM PK11195; 24 h mRNA, 72 h protein
Experimental: as §1, §2, §3, §4

CC[C@@H](C)NC(=O)c1cc2ccccc2c(-c2ccccc2Cl)n1 [ND-PK, (R)-N-Desmethyl PK11195]
LC-MS/MS peak of metabolite in HPH culture medium [1]: significantly increased in intensity
induction of CYP2B6 and CYP3A4 mRNA and protein [2]: significantly induced
interaction between hCAR and GRIP1 (hCAR/GRIP1 interaction; 10 μM, COS1 cells): moderately enhanced
effect on PK11195-repressed binding of GRIP1 to hCAR (hCAR/GRIP1 interaction; ND-PK + PK11195 co-treatment): only minimally affecting
hCAR activation in the CAR1+A/CYP2B6-2.2k reporter assay (hCAR1+A): robustly activates hCAR to a level similar to the positive control
hCAR activity (CYP2B6 reporter luciferase activity) (hCAR [3]): activated hCAR in a concentration-dependent manner
nuclear translocation of hCAR (EYFP-hCAR) (hCAR [4]): robustly increased nuclear translocation
interaction between hCAR and SRC-1 (hCAR/SRC-1 interaction; 10 μM, COS1 cells): moderately enhanced
effect on PK11195 mediated repression of SRC-1/CAR interaction (hCAR/SRC-1 interaction; ND-PK + PK11195 co-treatment): markedly rescued

O=P1(N(CCCl)CCCl)NCCCO1 (stereo not shown) [CPA, cyclophosphamide]
cytotoxicity (HEK-293 cells [5]): no cytotoxicity
metabolism-dependent cytotoxicity (HEK-293 cells [6]): showed metabolism-dependence in the co-culture only

CC(=O)N1CCN(c2ccc(OCC3COC(Cn4ccnc4)(c4ccc(Cl)cc4Cl)O3)cc2)CC1 (stereo not shown) [KET, ketoconazole]
effect of KET co-treatment on conversion of PK11195 from CAR antagonist to CAR activator (hCAR [7]): significantly inhibited the conversion of PK11195
effect of KET co-treatment on repression of CAR activity by PK11195 (hCAR [3]; 8 μM KET, HepG2-CAR-2B6 cells alone): not influenced

COc1cccc2c1C(=O)c1c(O)c3c(c(O)c1C2=O)C[C@@](O)(C(=O)CO)C[C@@H]3O[C@H]1C[C@H](N)[C@H](O)[C@H](C)O1 [DOX, doxorubicin]
fraction eliminated from the body unchanged [8]: over 50%

CCC1(c2ccccc2)C(=O)NC(=O)NC1=O [PB, Phenobarbital]
induction of CYP2B6 and CYP3A4 at mRNA and protein levels ([9]; hepatocytes): robustly induced

CCC(C)N(C)C(=O)c1cc2ccccc2c(-c2ccccc2Cl)n1 (stereo not shown) [PK11195, 1-(2-chlorophenyl)-N-methyl-N-(1-methylpropyl)-3-isoquinolinecarboxamide]
induction of CYP2B6 and CYP3A4 mRNA and protein [10]: induced the expression of CYP2B6 and CYP3A4 mRNA and protein
metabolism of PK11195 by HPHs ([1]; 10 μM PK11195, media at 0 and 1 hour): metabolized by HPHs to COOH-PK and ND-PK
induction of CYP2B6 and CYP3A4 mRNA and protein [2]: significantly induced
induction of CYP2B6 and CYP3A4 at mRNA and protein levels [9]: robustly induced

O=C(O)c1cc2ccccc2c(-c2ccccc2Cl)n1 [COOH-PK, 1-(2-Chlorophenyl)isoquinoline-3-carboxylic acid]
LC-MS/MS peak of metabolite in HPH culture medium [1]: significantly increased in intensity
hCAR activation in the CAR1+A/CYP2B6-2.2k reporter assay (hCAR1+A): negligible CAR activation
hCAR activity (CYP2B6 reporter luciferase activity) (hCAR [3]): no effect on CAR activity
nuclear translocation of hCAR (EYFP-hCAR) (hCAR [4]): negligible CAR nuclear accumulation
induction of CYP2B6 and CYP3A4 at mRNA and protein levels ([9]; HPHs from liver donors 120 and 121, 0.1, 1 and 10 μM, 24 h mRNA, 72 h protein): negligible effects

Clc1ccc(-c2nc3sccn3c2C=NOCc2ccc(Cl)c(Cl)c2)cc1 [CITCO, 6-(4-Chlorophenyl)imidazo[2,1-b][1,3]thiazole-5-carbaldehyde-O-(3,4-dichlorobenzyl)oxime]
induction of CYP2B6 and CYP3A4 at mRNA and protein levels ([9]; HPHs from liver donors 107 and 122, 1 mM PB, 1 μM CITCO, 10 μM RIF, 10 μM PK11195, 24 h mRNA, 72 h protein): robustly induced
